The record followed here is patent US8507219B2, “Method of treating inflammation with statins” (MUSC Foundation for Research Development, priority 1997, dated 2013).

Usually inhibition stands for the percentage by which the read-out fell short of the control.

“And” between values parts separate entries of the source, which are not always exact repeats. Equal values may be shown once. Read-outs that look alike come from different tables or passages of the source.

The test system of test [1] is TNF-α production in rat primary astrocytes. The experiment in a line: LPS-induced TNF-α production (ELISA) in rat primary astrocytes. The class given is cell-based. As to the method: (§1) Determination of TNF-α and IL-1β in culture supernatants Cells were stimulated with LPS in serum-free media for 24 h in the presence or absence of forskolin or rolipram, and concentrations of TNF-α and IL-1β were measured in culture supernatants by using high-sensitivity enzyme-linked immunosorbent assay (R&D Systems, USA) according to the manufacturer's instructions.
On the technique in general: In an ELISA, binding on a coated surface is turned into a signal by an enzyme label.

Test [2] deals with TNF-α production in rat primary microglia. The experiment in a line: LPS-induced TNF-α production (ELISA) in rat primary microglia. The class given is cell-based. The protocol:
as §1

Test [3] relates to IL-6 production in rat primary microglia. The experiment in a line: LPS-induced IL-6 production (ELISA) in rat primary microglia. The class given is cell-based.
Test [4] deals with NO production in rat primary microglia. The experiment in a line: LPS-induced NO production (nitrite) in rat primary microglia. The class given is cell-based.
Test [5] deals with NO production in rat C6 glial cells. The experiment in a line: LPS-/cytokine-induced NO production (nitrite) in C6 glial cells. The test is classed as cell-based. Particulars: for Nitrite / inhibition at 20000 µM: C6 glial cells, NAC 20 mM 2 h prior; for Nitrite: 24 h; for inhibition at 20000 µM: Rattus norvegicus, Glial cell.
The subject of test [6] is cultured skin fibroblasts of X-ALD. As to the kind of experiment: VLCFA ratios (C26:0/C22:0, C24:0/C22:0) in X-ALD skin fibroblasts. The class given is cell-based, human. Set-up: C24:0/C22:0: concentration or dose not given beside the values.
A further test concerns iNOS. The experiment in a line: Expression of iNOS protein (immunoblot) and mRNA (Northern) in rat primary astrocytes. The class given is cell-based. The method in brief: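 Cells incubated 24 h with or without stimuli (cytokines or LPS). iNOS protein detected by immunoblot with anti-mouse macrophage iNOS antibody and [^125I]-protein A. Northern blot: 20 μg total RNA hybridised at 68° C with ^32P-cDNA probe; iNOS mRNA quantified densitometrically relative to GAPDH rehybridisation.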
On the technique in general: Immunoblotting shows a protein as a band on a membrane.

In test [7] the test system is IL-1β production in rat macrophages. As to the kind of experiment: LPS-induced IL-1β production (ELISA) in rat macrophages. The class given is cell-based.
Test [8] relates to IL-1β production in rat primary microglia. As to the kind of experiment: LPS-induced IL-1β production (ELISA) in rat primary microglia. The class given is cell-based. As to the method: as §1
The subject of test [9] is cultured skin fibroblasts of X-ALD. The experiment in a line: β-oxidation of lignoceric acid in cultured skin fibroblasts of X-ALD. The test is classed as cell-based, human.
The test system of the next test is TNF-α. The class given is in vivo, Lewis rats. The protocol:
One group of animals induced for EAE was left untreated while another group of animals was not induced for EAE and used as the control group.
Immunohistochemistry Brains were fixed in 10% buffered formalin (Stephens Scientific, Riverdale, N.J.). The tissues were embedded in paraffin and sectioned at 4 μm. Sections were then stained for various cytokines and cell markers as described below. For single-label immunohistochemistry, sections were incubated with either anti-iNOS antibody (1:100, rabbit polyclonal, Calbiochem, LaJolla, Calif.) or anti-TNF-α antibody (1:100, rabbit polyclonal, Genzyme, Cambridge, Mass.) or anti-IFN-γ antibody (1:200, rabbit polyclonal, Biosource International, Camarillo, Calif.) essentially as described for other antibodies (Hooper et al., 1997). The tissue sections were further incubated with FITC conjugated anti-rabbit IgG (1:100, Sigma, St. Louis, Mo.), mounted with mounting media (EMS) and analyzed by immunofluorescence microscopy (Olympus) using Adobe photoshop software. For immunofluorescent double-labeling, sections were incubated first with anti-iNOS (1:100) followed by macrophage marker ED1 (1:100, mouse monoclonal, Biosource International, Camarillo, Calif.). Anti-iNOS was visualized using TRITC conjugated anti-rabbit IgG—(1:100, Sigma, St. Louis, Mo.) and ED1 using FITC conjugated anti-mouse IgG (1:100, Sigma, St. Louis, Mo.). […]

The mark [10] stands for this setting: Microglia, 10 μM lovastatin or 5 mM NaPA 8 h, then LPS 1.0 μg/ml, 24 h.

For `CC[C@H](C)C(=O)O[C@H]1C[C@@H](C)C=C2C=C[C@H](C)[C@H](CC[C@@H]3C[C@@H](O)CC(=O)O3)[C@H]21` [Lovastatin], the “Production of TNF-α” value was 0.3 ± 0.05 ng/24 h/mg protein in [1] (Astrocytes, 10 μM lovastatin or 5 mM NaPA 8 h, then LPS 1.0 μg/ml, 24 h) and 0.9 ± 0.1 ng/24 h/mg protein in test [2] (setting [10]). Also, the “Production of IL-6” value in [3] (setting [10]) is 7.8 ± 1.1 ng/24 h/mg protein. Moreover, the “Production of NO” value in test [4] (setting [10]) is on record as 5.9 ± 0.4 nmol/24 h/mg protein. For the same molecule, in [5], the “LPS- and cytokine-induced NO production” value is “inhibit LPS- and cytokine-induced NO production in rat C6 glial cells”. The “C24:0/C22:0” value in test [6] is 1.25 ± 0.15 and 1.28 ± 0.21 and 1.31 ± 0.18 and 1.26 ± 0.16 and 1.29 ± 0.02. Besides, in the test on iNOS (LPS 1.0 μg/ml), the “LPS-mediated induction of iNOS protein and mRNA” value is “significantly inhibited the LPS-mediated induction of iNOS protein and mRNA”. For the same molecule, the “Production of IL-1β” value is reported as 2.3 ± 0.3 ng/24 h/mg protein in test [7] (Macrophages, 10 μM lovastatin or 5 mM NaPA 8 h, then LPS 1.0 μg/ml, 24 h) and 2.1 ± 0.3 ng/24 h/mg protein in test [8] (setting [10]). Moreover, in test [9] (72 h, lovastatin 5 μM, NaPA 5 mM (highest doses found to stimulate)), the “stimulation of lignoceric acid β-oxidation” value was found to be 70%. Besides, the “Lignoceric acid β-oxidation” value was 223.5 ± 24.1 pmol/h/mg protein in test [9] (ALDS2, 15 days, 5 μM lovastatin, 5 mM NaPA or the combination of 2 μM lovastatin and 2 mM NaPA, Control 142.7 ± 15.7); 223.5 ± 24.1 pmol/h/mg protein in test [9] (ALDS2, 15 days, 5 μM lovastatin, 5 mM NaPA or the combination of 4 μM forskolin and 2 mM NaPA, Control 142.7 ± 15.7); 201.3 ± 22.3 pmol/h/mg protein in test [9] (ALDS3, 15 days, 5 μM lovastatin, 5 mM NaPA or the combination of 2 μM lovastatin and 2 mM NaPA, Control 122.3 ± 11.7); 201.3 ± 22.3 pmol/h/mg protein in [9] (ALDS3, 15 days, 5 μM lovastatin, 5 mM NaPA or the combination of 4 μM forskolin and 2 mM NaPA, Control 122.3 ± 11.7); 192.8 ± 20.5 pmol/h/mg protein in test [9] (ALDS4, 15 days, 5 μM lovastatin, 5 mM NaPA or the combination of 2 μM lovastatin and 2 mM NaPA, Control 118.5 ± 12.6); 192.8 ± 20.5 pmol/h/mg protein in test [9] (ALDS4, 15 days, 5 μM lovastatin, 5 mM NaPA or the combination of 4 μM forskolin and 2 mM NaPA, Control 118.5 ± 12.6). The “Lignoceric acid β-oxidation” value came out at 248.2 ± 26.2 pmol/h/mg protein in test [9] (ALDS5, 15 days, 5 μM lovastatin, 5 mM NaPA or the combination of 2 μM lovastatin and 2 mM NaPA, Control 154.2 ± 14.2); 248.2 ± 26.2 pmol/h/mg protein in test [9] (ALDS5, 15 days, 5 μM lovastatin, 5 mM NaPA or the combination of 4 μM forskolin and 2 mM NaPA, Control 154.2 ± 14.2); 218.3 ± 19.8 pmol/h/mg protein in test [9] (ALDS6, 15 days, 5 μM lovastatin, 5 mM NaPA or the combination of 2 μM lovastatin and 2 mM NaPA, Control 132.4 ± 15.9); 218.3 ± 19.8 pmol/h/mg protein in test [9] (ALDS6, 15 days, 5 μM lovastatin, 5 mM NaPA or the combination of 4 μM forskolin and 2 mM NaPA, Control 132.4 ± 15.9).
Take `CC(=O)N[C@@H](CS)C(=O)O` [NAC, N-acetyl cysteine]: the Nitrite in test [5] (stimulus LPS + IFN-γ) is reported as 8.2 ± 1.4 nmol/mg/24 h; in [5] (stimulus LPS + IL-1β) it was 5.8 ± 1.2 nmol/mg/24 h; in test [5] (stimulus LPS + TNF-α), 7.1 ± 1.1 nmol/mg/24 h; in test [5] (stimulus TNF-α + IFN-γ) it was 8.4 ± 2.1 nmol/mg/24 h; in test [5] (stimulus TNF-α + IL-1β), 4.2 ± 0.8 nmol/mg/24 h. The inhibition at 20000 µM in test [5] (stimulus LPS + IFN-γ) was 74%; in [5] (stimulus LPS + IL-1β) it was 75%; in test [5] (stimulus LPS + TNF-α) it was 79%; in [5] (stimulus TNF-α + IFN-γ), 73%; in test [5] (stimulus TNF-α + IL-1β), 80%. In addition, the “expression of TNF-α in EAE brain” value in the test with TNF-α (daily i.p. treatment from day 1) is recorded as “blocked the induction of TNF-α”.
Consider `O=C([O-])Cc1ccccc1.[Na+]` [NaPA, sodium salt of phenylacetic acid], for which the “Production of TNF-α” value in test [1] is 0.4 ± 0.06 ng/24 h/mg protein; in test [2] it was 1.3 ± 0.2 ng/24 h/mg protein. In addition, the “Production of IL-6” value in test [3] is on record as 9.3 ± 1.2 ng/24 h/mg protein. For the same molecule, the “Production of NO” value in [4] is reported as 6.9 ± 0.9 nmol/24 h/mg protein. In addition, the “ratios of C26:0/C22:0 and C24:0/C22:0 / level of VLCFA” value in test [6] was “almost to the normal level after 15 days of treatment”. Further, in the test with iNOS, the “LPS-mediated induction of iNOS protein and mRNA” value is “significantly inhibited the LPS-mediated induction of iNOS protein and mRNA”. Further, the “Production of IL-1β” value in test [7] was 3.1 ± 0.4 ng/24 h/mg protein and 3.1 ± .4 ng/24 h/mg protein; in [8] it was 2.4 ± 0.2 ng/24 h/mg protein. Moreover, the “Lignoceric acid β-oxidation” value in test [9] was 211.5 ± 22.6 pmol/h/mg protein and 189.7 ± 21.2 pmol/h/mg protein and 183.2 ± 17.3 pmol/h/mg protein and 178.9 ± 18.3 pmol/h/mg protein and 202.5 ± 17.4 pmol/h/mg protein. Besides, the “stimulation of lignoceric acid β-oxidation” value in test [9] is recorded as 40%. Also, the “expression of TNF-α in EAE brain” value in the test on TNF-α (rat, in vivo, ip) is “blocked the induction of TNF-α”.
